Source: patent publication US20230310330A1, “PEPTIDIC OLIGOMERS AND METHODS OF USING THE SAME” (BIOVENTURES, LLC, priority 2022, published 2023)
Where two headings read alike, the source gives them in different places.

Assays:
[1] = test system: mouse 4T1 breast cancer cells
Procedure: Cells were incubated with varying concentrations for 48 hours, followed by CCK8 reagent. The absorbance at 450 nm was recorded.
Biocompatibility of the peptidic oligomers was characterized in a toxicity assay of the empty beta and gamma chains performed with mouse 4T1 breast cancer cells (FIG. 4). […] Cells were incubated with varying concentrations for 48 hours, followed by CCK8 reagent. The absorbance at 450 nm was recorded.

vacuolar ATPase = assay: Bafilomycin A1 block of FITC-labeled CPP translocation, flow cytometry; assay type: cell-based
Description: FIG. 15: Bafilomycin Al blocks CPP translocation. (A) FITC-labeled B6 and G6 are easily detected by flow cytometry.
Vacuolar ATPase aids in the transport to the interior of acidic organelles and BafA1 efficiently neutralizes the luminal pH, inhibits acidic hydrolases, and impairs the fusion among acidic organelles.

4T1 breast cancer cells = assay: In vitro cell viability assay, CellTiter-Glo, 72 hours; assay type: cell-based, mouse; details: 4T1 cells
Procedure: The assay was run for 72 hours with the CellTiter-Glo assay to determine cell viability.

Question: Which “cellular toxicity (number of viable cells)” value [1] does the source give for `CC(C)(C)OC(=O)N[C@@H](CNC(=O)[C@H](CNC(=O)[C@H](CNC(=O)[C@H](CNC(=O)[C@H](CNC(=O)[C@H](CN)NC(=O)OC(C)(C)C)NC(=O)OC(C)(C)C)NC(=O)OC(C)(C)C)NC(=O)OC(C)(C)C)NC(=O)OC(C)(C)C)C(=O)O` [B6] here?
Answer: The value was “do not display cellular toxicity”.

Question: Which results are given for `CO/C1=C\C(C)=C\[C@@H](C)[C@@H](O)[C@@H](C)C/C(C)=C/C=C/[C@H](OC)[C@@H]([C@@H](C)[C@@H](O)[C@H](C)[C@@]2(O)C[C@@H](O)[C@H](C)[C@@H](C(C)C)O2)OC1=O` [Bafilomycin A1]?
Answer: effect on FITC-labeled CPP binding and translocation (FITC signal) (vacuolar ATPase): blocked FITC-labeled CPP; effect on FITC-labeled CPP binding and translocation (FITC signal) (vacuolar ATPase; listed as BafA1): blocks B6-FITC binding and translocation

Question: For `CC(C)(C)OC(=O)N[C@@H](CCNC(=O)[C@H](CCNC(=O)[C@H](CCNC(=O)[C@H](CCNC(=O)[C@H](CCNC(=O)[C@H](CCN)NC(=O)OC(C)(C)C)NC(=O)OC(C)(C)C)NC(=O)OC(C)(C)C)NC(=O)OC(C)(C)C)NC(=O)OC(C)(C)C)C(=O)O` [G6], which “cellular toxicity (number of viable cells)” value [1] is on record?
Answer: The value was “do not display cellular toxicity”.

Question: `C[S+]([O-])CCCCN=C=S` (centres unmarked) [sulforaphane, D, L sulforaphane] was tested. Which “concentration showing significant activity” value (4T1 breast cancer cells) did it give?
Answer: Its value is 10 mM.
